Source: PubChem BioAssay (NCI)
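Interpolation was linear, between the two tested concentrations surrounding the appropriate level; five concentrations were tested over 48 hours in 96-well plates. Abbreviation: GI50, concentration required for 50% inhibition of growth. TGI denotes the concentration required for complete inhibition of growth.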

Assays:
Assay in all cases: NCI tumour cell line growth inhibition, 48 h
786-0 renal = tested on: 786-0 renal
HOP-92 NSCLC = tested on: HOP-92 NSCLC
HS 578T breast = tested on: HS 578T breast
LXFL 529 NSCLC = tested on: LXFL 529 NSCLC
NCI-H226 lung = tested on: NCI-H226 lung
OVCAR-8 ovarian = tested on: OVCAR-8 ovarian
RXF 393 renal = tested on: RXF 393 renal
SF-268 CNS = tested on: SF-268 CNS
UACC-257 melanoma = tested on: UACC-257 melanoma
DMS 273 small cell lung = tested on: DMS 273 small cell lung

| Structure (SMILES) | TGI (786-0 renal) | TGI (HOP-92 NSCLC) | TGI (HS 578T breast) | TGI (LXFL 529 NSCLC) | TGI (NCI-H226 lung) | TGI (OVCAR-8 ovarian) | TGI (RXF 393 renal) | TGI (SF-268 CNS) | TGI (UACC-257 melanoma) | TGI (DMS 273 small cell lung) | GI50 (786-0 renal) | GI50 (HOP-92 NSCLC) | GI50 (LXFL 529 NSCLC) | GI50 (NCI-H226 lung) | GI50 (OVCAR-8 ovarian) | GI50 (RXF 393 renal) | GI50 (SF-268 CNS) | GI50 (UACC-257 melanoma) |
| --- | --- | --- | --- | --- | --- | --- | --- | --- | --- | --- | --- | --- | --- | --- | --- | --- | --- | --- |
| CCCCCCC/C=C1\CCC(CN(C)C)C1=O (stereo not given) | 3.84 µM | 33.7 µM | > 100 µM | 20.8 µM | 48.4 µM | 18 µM | 12.1 µM | 35.8 µM | 29.4 µM |  |  |  |  |  |  |  |  |  |
| CCN(CC)/[N+]([O-])=N/OCC(C)O (stereo not given) | > 100 µM | > 100 µM |  |  | > 100 µM | > 100 µM | > 100 µM | > 100 µM | > 100 µM | > 100 µM |  |  |  |  |  |  |  |  |
| N/C(=N\N=C\c1ccc(O)c(O)c1)NO | > 100 µM | > 100 µM |  | > 100 µM | > 100 µM | > 100 µM | > 100 µM | > 100 µM | > 100 µM | > 100 µM |  |  |  |  |  |  |  |  |
| CC(CCC(=O)O)c1ccc(Br)cc1 (stereo not given) | > 100 µM |  |  | > 100 µM | > 100 µM | > 100 µM | > 100 µM | > 100 µM | > 100 µM | > 100 µM |  |  |  |  |  |  |  |  |
| O=C(CC1SC(=Nc2ccccc2Cl)NC1=O)Nc1ccc(Cl)cc1 (stereo not given) | > 100 µM |  |  | > 100 µM |  |  | > 100 µM | > 100 µM | > 100 µM | > 100 µM |  |  |  |  |  |  |  |  |
| C/C=C(\C)C(=O)N1c2ccccc2CC1c1c(C)[nH]c2ccccc12 (stereo not given) | > 100 µM | 99.4 µM |  | > 100 µM | > 100 µM | > 100 µM | > 100 µM |  | > 100 µM | > 100 µM |  |  |  |  |  |  |  |  |
| Fc1ccc2c(c1)cc1ccc3cccc4ccc2c1c34 | > 100 µM | > 100 µM |  | > 100 µM | > 100 µM | > 100 µM | > 100 µM | > 100 µM | > 100 µM | > 100 µM |  |  |  |  |  |  |  |  |
| CCOC(=O)NC(=O)c1cn(C2OC(COC(=O)CCCCCCCCC(=O)OCC3OC(n4cc(C(=O)NC(=O)OCC)c(=O)[nH]c4=O)C4OC(C)(C)OC34)C3OC(C)(C)OC32)c(=O)[nH]c1=O (stereo not given) | > 100 µM | > 100 µM |  | > 100 µM | > 100 µM | > 100 µM | > 100 µM | > 100 µM | > 100 µM | > 100 µM |  |  |  |  |  |  |  |  |
| CCCCCN(CCCCC)C(=O)[C@H](CCC(=O)OCc1ccccc1)NC(=O)c1cc2ccccc2[nH]1 | > 100 µM | > 100 µM |  | > 100 µM | > 100 µM | > 100 µM | > 100 µM | > 100 µM | > 100 µM | > 100 µM |  |  |  |  |  |  |  |  |
| CN=C(N)NC | > 100 µM | > 100 µM |  | > 100 µM | > 100 µM | > 100 µM | > 100 µM | > 100 µM | > 100 µM | > 100 µM |  |  |  |  |  |  |  |  |
| CC(C)Cc1ccc(C(C)/C=C2\CCC(CN3CCCCC3)C2=O)cc1 (stereo not given) | 3.38 µM | 30.4 µM | 45.6 µM | 3.55 µM | 32.2 µM | 12.8 µM | 5.73 µM | 8.29 µM | 26.4 µM | 7.2 µM |  |  |  |  |  |  |  |  |
| N.N.NCCCCCN.O=C([O-])CC(=O)[O-].O=C([O-])CC(=O)[O-].[Pt+4].[Pt+4] | > 100 µM | > 100 µM |  | > 100 µM | > 100 µM | > 100 µM | > 100 µM | > 100 µM | > 100 µM |  | > 100 µM | > 100 µM | > 100 µM | > 100 µM | > 100 µM | > 100 µM | 71.4 µM | > 100 µM |
| CCN(CC)CCC(=O)N1C/C(=C/c2ccccc2)C(=O)/C(=C\c2ccccc2)C1 | 9.78 µM | 17 µM | 2.21 µM | 3.27 µM | 13.7 µM | 10.2 µM | 2.99 µM | 5.4 µM | 4.98 µM | 3.15 µM |  |  |  |  |  |  |  |  |
| Cn1cc2ccccc2c1-c1nc(F)nc(Nc2ccc(N)cc2)n1 | 64 µM | 55.6 µM |  | 30.9 µM | 32.7 µM | 46.7 µM | 45 µM | 56.3 µM | 37.6 µM | 25.6 µM |  |  |  |  |  |  |  |  |
| CC(=O)Oc1cc(Cl)c(OC(C)=O)c2c(OC(C)=O)c(C)c(O[Si](C)(C)C(C)(C)C)cc12 | 28.1 µM | 20 µM |  |  |  | 7.56 µM | 11.2 µM | 26.2 µM | 11.6 µM | 20 µM |  |  |  |  |  |  |  |  |
| Nc1nc(CC2(O)CCCCC2)cc(-c2ccccc2)n1 | 43.2 µM | > 71.9 µM |  | > 100 µM | > 61.9 µM | > 84.7 µM | > 57.5 µM | > 100 µM | > 78.1 µM | > 66 µM |  |  |  |  |  |  |  |  |
